The experiment relates to SCI-induced oedema. As to the kind of experiment: Example 3: spinal cord water content with aquaporin-4 relocalisation inhibitors. As to conditions: in vivo. The method, then:
The lesion site+3 mm either side for mice and the lesion site+5 mm either side for the rat DC model were dissected out and the water content of the spinal cord (as a measure of oedema) was determined at 3 days after DC and CC SCI, as described previously (S. Li, C. H. Tator, Effects of MK801 on evoked potentials, spinal cord blood flow and cord edema in acute spinal cord injury in rats. Spinal Cord 37, 820-832 (1999)). Spinal cords containing the lesion site were weighed on aluminium foil, dried at 105° C. for 24 hr, and re-weighed. The percent water content was calculated as: water content (%)=[(wet weight-dry weight)/wet weight]×100%.
Using similar techniques to those described in Example 1, the water content in the spinal cord as a measure of injury-induced oedema was determined for various agents and aquaporin-4 inhibitors, namely TFP, PKAi, PKCi and TGN-020—see FIG. 21.

On to `CN1CCN(CCCN2c3ccccc3Sc3ccc(C(F)(F)F)cc32)CC1` [TFP, trifluoperazine], for which the “SCI-induced oedema, water content (FIG. 21)” value is listed as “suppress SCI-induced oedema”.
Consider `O=C(Nc1nncs1)c1cccnc1` [TGN-020, N-1,3,4-Thiadiazol-2-yl-3-pyridinecarboxamide], for which the “SCI-induced oedema, water content (FIG. 21)” value is “suppress SCI-induced oedema”.

The values above are taken from patent US20230255943A1, “MMP-9 AND MMP-12 INHIBITION FOR TREATING SPINAL CORD INJURY OR RELATED INJURY TO NEUROLOGICAL TISSUE” (The University of Birmingham, priority 2020, published 2023).
